# Test results taken from paper PMC6562204 (Bioorganic & Medicinal Chemistry, 2018).
# Biological target: CK2α (Homo sapiens, UniProt P68400)
# Test: biochemical
# Details: read-out: % inhibition of phosphorylation activity of CK2α
# CK2α, sequence (P68400 2-329): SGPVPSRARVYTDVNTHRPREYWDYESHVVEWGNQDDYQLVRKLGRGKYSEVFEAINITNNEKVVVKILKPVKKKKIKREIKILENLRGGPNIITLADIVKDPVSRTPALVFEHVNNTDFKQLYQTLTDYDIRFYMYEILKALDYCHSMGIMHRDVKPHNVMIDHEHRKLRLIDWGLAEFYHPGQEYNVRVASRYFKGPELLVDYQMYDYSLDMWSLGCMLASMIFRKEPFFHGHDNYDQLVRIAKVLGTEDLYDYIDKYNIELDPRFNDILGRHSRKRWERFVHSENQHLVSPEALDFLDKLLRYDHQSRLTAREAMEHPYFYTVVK
compound,measurement,value
"NCc1cc(Cl)cc(-c2cccc3[nH]ccc23)c1 [Compound 7, (3-chloro-5-(1H-indol-4-yl)phenyl)methanamine]",inhibition at 100 µM,18%
